Results as given in paper PMC5408263, “Four Aromatic Sulfates with an Inhibitory Effect against HCV NS3 Helicase from the Crinoid Alloeocomatella polycladia” (Marine Drugs, 2017).
Where a name gives a salt, the structure may show the parent alone.

How the values were obtained:
[1] = biological target: T1, HCV NS3 helicase (Hepatitis C virus genotype 1a, UniProt P27958); experiment: fluorescence helicase assay based on FRET; format: biochemical; settings: dsRNA substrate labeled with Alexa Fluor 700 and Black Hole Quencher 3; 240 nM NS3 helicase; 30 min at 37 °C; triplicate; read-out: IC50 against NS3 helicase
T1 construct: HCV NS3 protein with helicase activity was expressed and purified as previously described; made in house
Method: For enzymatic inhibition, we used the fluorescence helicase assay based on fluorescence resonance energy transfer (FRET) to examine NS3 helicase inhibition by Compounds 1–4. […] The measured values in triplicate for each concentration of Compounds 1–4 were averaged and divided by the mean value from the negative control sample that contains DMSO instead of Compounds 1–4 to show the NS3 helicase activity as a percentage.
The fluorescence helicase assay based on FRET was conducted as we previously described, except that we used a DNA capture strand rather than an RNA capture strand for which the sequence was complementary to that of the quencher strand. HCV NS3 protein with helicase activity was expressed and purified as previously described. In the assay, when NS3 helicase unwinds the dsRNA substrate, the DNA capture strand binds to the unwound single-stranded RNA (ssRNA) substrate labeled with Black Hole Quencher 3 and prevents the ssRNA substrate from reannealing to the complementary ssRNA substrate labeled with Alexa Fluor 700. […] Thus, the NS3 helicase activity can be monitored by the real-time measurement of the fluorescence intensity of Alexa Fluor 700 through 30 min incubation at 37 °C by using a SpectraMax Gemini XS microplate reader (Molecular Devices, Sunnyvale, CA, USA). The reaction mixture contained 25 mM MOPS-NaOH (pH 6.5), 3 mM MgCl2, 2 mM dithiothreitol, 4 U RNasin (Promega, Madison, WI, USA), 50 nM dsRNA substrate, 400 nM DNA capture strand, 5 mM ATP, a serial dilution of Compounds 1–4 dissolved in DMSO, and 240 nM NS3 helicase in a total reaction volume of 20 μL. The NS3 helicase activity was calculated as the initial reaction velocity relative to that of the control (in the absence of Compounds 1–4 but in the presence of DMSO). The IC50 value was calculated using KaleidaGraph (Synergy Software, Reading, PA, USA) by fitting plots of relative helicase activity (%) vs. [I] using Equation (1):(1) % Activity = 100/1 + ([I]/IC50)^h where h is the Hill coefficient, and [I] is the inhibitor concentration.

[2] = system: HCV subgenomic replicon cell line Huh7/Rep-Feo (genotype 1b, N strain); experiment: HCV replicon assay (luciferase); format: cell-based; settings: Hepatitis C virus, Huh-7, 72 h post-treatment, luciferase activity, read-out: EC50 (50% effective concentration), suppression of HCV replication
Method: (§1) Further, we investigated the effect of Compounds 2 and 3 on both viral replication and cell growth in the HCV subgenomic replicon cell line Huh7/Rep-Feo (genotype 1b, N strain). […] This was likely due to its low membrane permeability caused by the negatively charged sulfate group within the molecule in aqueous solution.
The Huh7/Rep-Feo cell line harboring the subgenomic replicon RNA of the N strain (genotype 1b) was seeded at 2 × 10^4 cells per well in a 48-well plate and incubated at 37 °C for 24 h. A serial dilution of Compounds 2 and 3 was added to each well of the plate. The treated cells were harvested 72 h post-treatment and lysed in cell culture lysis reagent (Promega, Madison, WI, USA). Luciferase activity in the harvested cells was estimated with a luciferase assay system (Promega). The resulting luminescence was detected by a Luminescencer-JNR AB-2100 (ATTO, Tokyo, Japan). The anti-HCV activity was calculated as the intensity of the luminescence relative to that of the control (in the absence of Compounds 2 and 3 but in the presence of DMSO).

[3] = Cytotoxicity assay (MTS); format: cell-based; settings: human, Huh7/Rep-Feo cells, 72 h post-treatment, read-out: CC50 (50% cytotoxicity concentration)
Method: as §1
Huh7/Rep-Feo cells were seeded at a density of 1 × 10^4 cells per well in a 96-well plate and then incubated at 37 °C for 24 h. Compounds 2 and 3 were added to the culture medium to yield various concentrations and were then harvested 72 h post-treatment. Cell viability was determined by a dimethyl thiazolcarboxymethoxyphenyl sulfophenyltetrazolium (MTS) assay using a CellTiter 96 aqueous one-solution cell proliferation assay kit (Promega), according to the manufacturer’s protocol.

[4] = system: hepatitis C virus (HCV) NS3 helicase; settings: authentic molecule; read-out: IC50 against NS3 helicase; cited from earlier work

T1 sequence (P27958 1027-1657): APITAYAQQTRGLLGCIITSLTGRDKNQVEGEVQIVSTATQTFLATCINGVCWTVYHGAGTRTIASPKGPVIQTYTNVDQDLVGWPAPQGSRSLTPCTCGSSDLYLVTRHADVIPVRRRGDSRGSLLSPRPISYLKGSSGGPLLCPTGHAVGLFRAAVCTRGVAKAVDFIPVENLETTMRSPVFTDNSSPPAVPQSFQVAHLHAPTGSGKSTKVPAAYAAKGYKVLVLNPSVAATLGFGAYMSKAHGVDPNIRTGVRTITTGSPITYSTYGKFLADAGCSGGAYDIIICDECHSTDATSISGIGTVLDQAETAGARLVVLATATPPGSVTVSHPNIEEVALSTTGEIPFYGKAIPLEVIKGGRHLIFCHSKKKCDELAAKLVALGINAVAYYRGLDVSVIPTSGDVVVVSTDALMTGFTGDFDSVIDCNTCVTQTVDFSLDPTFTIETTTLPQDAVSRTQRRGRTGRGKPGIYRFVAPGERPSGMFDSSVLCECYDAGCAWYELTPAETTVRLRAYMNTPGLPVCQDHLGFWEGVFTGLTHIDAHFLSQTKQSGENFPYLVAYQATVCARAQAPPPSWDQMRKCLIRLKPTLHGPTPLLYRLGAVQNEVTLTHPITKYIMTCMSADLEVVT

SMILES | IC50 [1] [µM] | EC50 [2] [µM] | CC50 at 72 h [3] [µM] | IC50 [4] [µM]
Cc1cc(O)c2c(=O)c3c(O)cc(OS(=O)(=O)O)cc3cc-2o1 [Compound 1] | 71 |  |  | 
CCCc1cc(O)c2c(=O)c3c(O)cc(OS(=O)(=O)O)cc3cc-2o1 [Compound 2] | 95 | 57 | 52 | 
Cc1cc(O)c2c(=O)c3c(O)c(-c4c(OS(=O)(=O)O)cc(O)c5c(=O)c6c(O)cc(C)oc-6cc45)c(OS(=O)(=O)O)cc3cc-2o1 [Compound 3] | 7 | 67 | 70 | 
CCCc1cc(O)c2c(=O)c3c(O)c(-c4c(OS(=O)(=O)O)cc(O)c5c(=O)c6c(O)cc(C)oc-6cc45)c(OS(=O)(=O)O)cc3cc-2o1 [Compound 4] | 5 |  |  | 
CC(C)CCC[C@@H](C)[C@H]1CC[C@H]2[C@@H]3CC=C4C[C@@H](OS(=O)(=O)O)CC[C@]4(C)[C@H]3CC[C@]12C [cholesterol sulfate] |  |  |  | 1.7 ± 0.2
